Results as given in US20230293599A1, “BACTERIAL COMPOSITIONS WITH ANTI-INFLAMMATORY ACTIVITY” (Universiteit Gent, priority 2020, published 2023).
Like-named read-outs stand apart in the source and are kept apart here.

What was measured:
[1] = test system: S. aureus; type: cell-based, Staphylococcus aureus
Method: (§1) Using Phenotype Microarray (PM) panels (Biolog), the influence of 190 carbon sources on the growth of the potential probiotic species R. mucilaginosa, R. dentocariosa, R. gilardii, G. haemolysans, and common respiratory pathogens P. aeruginosa, and S. aureus was determined. PM1 and PM2 panels (Biolog) were inoculated according to the manufacturer's instructions. Growth curves were generated for 35 hours by measuring the absorbance at 590 nm using an EnVision (Perkin Elmer) plate reader.

[2] = test system: P. aeruginosa; assay: Biolog Phenotype Microarray PM1-2 growth on carbon sources; type: cell-based, Pseudomonas aeruginosa
Method: as §1

[3] = 35 hours, absorbance 590 nm, n = 1, cells without values AUC < 50

Compound	AUC of growth curve, S. aureus [1]	also measured
OC[C@H]1O[C@@H](O[C@@H]2[C@@H](CO)OC(O)(CO)[C@H]2O)[C@H](O)[C@@H](O)[C@H]1O (mixture of isomers) [Lactulose]	656.2	
C[N+](C)(C)CC(O)CC(=O)[O-] (racemic) [D,L-Carnitine]		AUC of growth curve, P. aeruginosa [2, 3]: 574.6
NCC(O)c1ccc(O)cc1 (racemic) [D,L-Octopamine]	166.2	AUC of growth curve, P. aeruginosa [2, 3]: 1142.2
CC(O)CO (centres unmarked) [1,2-Propanediol]	150.0	
NCCO [2-Aminoethanol]		AUC of growth curve, P. aeruginosa [2, 3]: 293.7
Nc1ncnc2c1ncn2C1CC(O)C(CO)O1 (centres unmarked) [2-Deoxy-Adenosine]	419.1	
O=C[C@@H](O)[C@H](O[C@@H]1O[C@H](CO)[C@H](O)[C@H](O)[C@H]1O)[C@H](O)CO [3-0-β-D-Galacto-pyranosyl-D-Arabinose]	446.3	AUC of growth curve, P. aeruginosa [2, 3]: 188.8
CC(=O)C(C)O (centres unmarked) [3-Hydroxy 2-Butanone]	255.6	AUC of growth curve, P. aeruginosa [2, 3]: 183.2
O=C(O)c1ccc(O)cc1 [4-Hydroxy Benzoic Acid]	140.6	AUC of growth curve, P. aeruginosa [2, 3]: 909.3
CC(N)=O [Acetamide]	93.1	AUC of growth curve, P. aeruginosa [2, 3]: 123.0
CC(=O)O [Acetic Acid]		AUC of growth curve, S. aureus [1, 3]: 898.7
N#C[C@H](O[C@@H]1O[C@H](CO[C@@H]2O[C@H](CO)[C@@H](O)[C@H](O)[C@H]2O)[C@@H](O)[C@H](O)[C@H]1O)c1ccccc1 [Amygdalin]	254.6	
CCCC(=O)O [Butyric Acid]	1011.5	
CCCCCC(=O)O [Caproic Acid]	908.9	
C/C(=C/C(=O)O)C(=O)O [Citraconic Acid]	86.7	
CC(O)(CC(=O)O)C(=O)O (centres unmarked) [Citramalic Acid]		AUC of growth curve, P. aeruginosa [2, 3]: 183.9
C[C@@H](N)C(=O)O [D-Alanine]	464.9	AUC of growth curve, P. aeruginosa [2, 3]: 668.1
OC[C@@H](O)C(O)[C@H](O)CO [D-Arabitol]	832.3	
N[C@H](CC(=O)O)C(=O)O [D-Aspartic Acid]	242.2	AUC of growth curve, P. aeruginosa [2, 3]: 101.3
OC[C@H]1O[C@@H](O[C@H]2[C@H](O)[C@@H](O)[C@H](O)O[C@@H]2CO)[C@H](O)[C@@H](O)[C@@H]1O [D-Cellobiose]		AUC of growth curve, S. aureus [1, 3]: 495.8; AUC of growth curve, P. aeruginosa [2, 3]: 70.0
O=C1O[C@@H]([C@H](O)CO)[C@H](O)[C@H]1O [D-Galactonic-Acid-γ-Lactone]		AUC of growth curve, P. aeruginosa [2]: 397.9

Compound	AUC of growth curve, S. aureus [1]	also measured
O=C(O)[C@H](O)[C@@H](O)[C@H](O)[C@H](O)CO [D-Gluconic Acid]	321.0	AUC of growth curve, P. aeruginosa [2]: 617.8
N[C@@H](C(=O)O)[C@@H](O)[C@H](O)[C@H](O)CO [D-Glucosaminic Acid]	267.3	
O=P(O)(O)O[C@H]1O[C@H](CO)[C@@H](O)[C@H](O)[C@H]1O [D-Glucose-1-Phosphate]	189.0	
O=C[C@H](O)[C@@H](O)[C@H](O)[C@H](O)COP(=O)(O)O [D-Glucose-6-Phosphate]	168.0	AUC of growth curve, P. aeruginosa [2, 3]: 399.6
O=C[C@H](O)[C@@H](O)[C@H](O)[C@H](O)C(=O)O [D-Glucuronic Acid]	292.7	AUC of growth curve, P. aeruginosa [2, 3]: 543.2
COC(=O)[C@@H](C)O [D-Lactic Acid Methyl Ester]	517.2	AUC of growth curve, P. aeruginosa [2, 3]: 1081.7
OC[C@@H](O)[C@@H](O)[C@H](O)[C@H](O)CO [D-Mannitol]	884.6	AUC of growth curve, P. aeruginosa [2, 3]: 420.0
OC[C@H]1O[C@H](OC[C@H]2O[C@H](O[C@]3(CO)O[C@H](CO)[C@@H](O)[C@@H]3O)[C@H](O)[C@@H](O)[C@@H]2O)[C@H](O)[C@@H](O)[C@H]1O [D-Rafinose]	282.1	
O=C1O[C@H](CO)[C@@H](O)[C@H]1O [D-Ribono-1,4-Lactone]	100.2	
O=C(O)[C@@H](O)[C@@H](O)[C@H](O)[C@@H](O)C(=O)O [D-Saccharic Acid]	57.3	AUC of growth curve, P. aeruginosa [2, 3]: 108.8
N[C@H](CO)C(=O)O [D-Serine]	76.2	
C[C@H](O)[C@@H](N)C(=O)O [D-Threonine]	87.8	
OC[C@@H](O)[C@H](O)[C@H](O)[C@@H](O)CO [Dulcitol]		AUC of growth curve, P. aeruginosa [2, 3]: 72.0
O=CO [Formic Acid]	474.0	
O=C(O)CO [Glycolic Acid]	344.8	
C=C(CC(=O)O)C(=O)O [Itaconic Acid]		AUC of growth curve, P. aeruginosa [2, 3]: 790.8
C[C@H](N)C(N)=O [L-Alaninamide]	295.4	
OC[C@H](O)C(O)[C@@H](O)CO [L-Arabitol]	165.7	
O=C[C@@H](O)[C@H](O)[C@@H](O)[C@@H](O)CO [L-Glucose]	314.7	
NCCCC[C@H](N)C(=O)O [L-Lysine]		AUC of growth curve, S. aureus [1, 3]: 331.6
N[C@@H](CO)C(=O)O [L-Serine]	558.2	

Compound	AUC of growth curve, S. aureus [1]	also measured
O=C(O)[C@H](O)[C@@H](O)C(=O)O [L-Tartaric Acid]	163.4	
C[C@@H](O)[C@H](N)C(=O)O [L-Threonine]	754.3	
OC[C@@H](O)[C@@H](O[C@@H]1O[C@H](CO)[C@H](O)[C@H](O)[C@H]1O)[C@H](O)[C@@H](O)CO [Lactitol]	338.8	
OC[C@@H](O)[C@@H](O[C@H]1O[C@H](CO)[C@@H](O)[C@H](O)[C@H]1O)[C@H](O)[C@@H](O)CO [Maltitol]	783.0	
O=C(O)[C@H](O)[C@@H](O)[C@H](O)[C@H](O)CO[C@H]1O[C@H](CO)[C@H](O)[C@H](O)[C@H]1O [Melibionic Acid]	270.3	
COC(=O)CCC(=O)O [Mono Methyl Succinate]	532.1	
CC(=O)N[C@H]1C(O)O[C@H](CO)[C@H](O)[C@@H]1O (stereo partly drawn) [N-Acetyl-D-Galactosamine]	59.3	
CC(=O)N[C@@H](CO)[C@@H](O)[C@H](O)[C@H](O)CO [N-Acetyl-D-Glucosaminitol]	381.9	
CC(=O)N[C@H]1[C@H]([C@H](O)[C@H](O)CO)OC(O)(C(=O)O)C[C@@H]1O (some centres unmarked) [N-Acetyl-Neuraminic Acid]	647.5	
O=C(O)C(=O)O [Oxalic Acid]	463.7	
O=C(O)CCCCCCCCC(=O)O [Sebacic Acid]	252.2	
OC[C@@]12OC[C@@H](O1)[C@@H](O)[C@@H](O)[C@@H]2O [Sedoheptulosan]	277.8	
OC[C@H]1O[C@H](OC[C@H]2O[C@H](OC[C@H]3O[C@H](O[C@]4(CO)O[C@H](CO)[C@@H](O)[C@@H]4O)[C@H](O)[C@@H](O)[C@@H]3O)[C@H](O)[C@@H](O)[C@H]2O)[C@H](O)[C@@H](O)[C@H]1O [Stachyose]	324.4	
Cc1cn([C@H]2C[C@H](O)[C@@H](CO)O2)c(=O)[nH]c1=O [Thymidine]	735.9	
NCCc1ccc(O)cc1 [Tyramine]		AUC of growth curve, P. aeruginosa [2, 3]: 684.5
OC[C@@H](O)[C@H](O)[C@@H](O)CO [Xylitol]	280.8	
O=C(O)Cc1cccc(O)c1 [m-Hydroxy Phenyl Acetic Acid]		AUC of growth curve, P. aeruginosa [2, 3]: 114.0
O[C@H]1[C@H](O)[C@@H](O)[C@H](O)[C@@H](O)[C@H]1O [m-inositol]	157.9	
O=C(O)Cc1ccc(O)cc1 [p_Hydroxy Phenyl Acetic Acid]		AUC of growth curve, P. aeruginosa [2, 3]: 987.9
OC[C@H]1O[C@@H](O[C@H]2[C@H](O)[C@@H](O)[C@@H](O)O[C@@H]2CO)[C@H](O)[C@@H](O)[C@H]1O [α-D-Lactose]	764.6	
CCC(O)C(=O)O (stereo not drawn) [α-Hydroxy-Butyric Acid]	567.8	

Compound	AUC of growth curve, S. aureus [1]	also measured
O=C1CCC(C(=O)O)O1 (stereo not drawn) [α-Hydroxy-Glutaric Acid γ-Lactone]	112.1	
CCCC(=O)C(=O)O [α-Keto-Valeric Acid]	734.6	
CO[C@H]1O[C@H](CO)[C@@H](O)[C@H](O)[C@H]1O [α-Methyl-D-Glucoside]	281.5	
COC1OC(CO)C(O)C(O)C1O [α-Methyl-D-Mannoside]	264.2	
OC[C@H]1O[C@@H](O)[C@H](O)[C@H](O)[C@@H]1O [β-D-Allose]	122.9	
CC(O)CC(=O)O (stereo not drawn) [β-Hydroxy Butyric Acid]	326.7	
CO[C@@H]1O[C@H](CO)[C@@H](O)[C@H](O)[C@H]1O [β-Methyl-D-Galactoside]	358.9	
CO[C@@H]1O[C@H](C(=O)O)[C@@H](O)[C@H](O)[C@H]1O [β-Methyl-D-Glucuronic Acid]	400.6	
COC1OCC(O)C(O)C1O [β-Methyl-D-Xyloside]	166.1	
O=C(O)CCCO [γ-Hydroxy Butyric Acid]	343.7	
Chondroitin Sulfate C		AUC of growth curve, S. aureus [1, 3]: 199.7
Gelatin		AUC of growth curve, S. aureus [1, 3]: 52.4
Gentiobiose		AUC of growth curve, S. aureus [1, 3]: 471.4
Glycogen		AUC of growth curve, S. aureus [1, 3]: 197.7
Laminarin		AUC of growth curve, S. aureus [1, 3]: 192.8
Mannan		AUC of growth curve, S. aureus [1, 3]: 154.5
Tween 20	214.4	
Tween 80	468.6	
